Common to all, as to assay type: in vivo
Data set [1] has as its system Beet Armyworm (Spodoptera exigua) ("BAW"). The data set can be described thus: Bioassay on beet armyworm (BAW), 128-well diet tray assay. The following applies: for mortality at 50 µg/cm2: 168 h, 50 μg/cm^2 on artificial diet, second instar BAW larvae, 25° C., five to seven days, average of eight wells, read-out: BAW % Control (or Mortality) rating; for pest or weed control at 50 µg/cm2: activity rating class, read-out: BAW (Biological Results, Insect species). In outline: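 Second-instar larvae (one to five per well) were placed on artificial diet surface-treated with 50 μg/cm^2 compound applied in 90:10 acetone-water and dried, eight wells per compound. Held at 25° C., 14:10 light-dark for five to seven days; percent mortality was scored per well and averaged over the eight wells.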

Data set [2] concerns Cabbage Looper (Trichoplusia ni) ("CL"). Kind of data set: Bioassay on cabbage looper (CL), 128-well diet tray assay. The following applies: for pest or weed control at 50 µg/cm2: activity rating class, read-out: CL (Biological Results, Insect species). The gist of the method: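 Second-instar larvae (one to five per well) placed on artificial diet surface-treated with 50 μg/cm^2 compound in 90:10 acetone-water, dried before infestation. Held 25 °C, 14:10 light-dark for five to seven days; percent mortality scored per well and averaged over eight wells.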

Data set [3] concerns Yellow Fever Mosquito "YFM" (Aedes aegypti). The following applies: for YFM % Control (or Mortality) rating: about 1 day-old larvae, 96-well plate, room temperature, 3 days; for YFM (Biological Results, Insect species): activity rating class. As for the experimental part: Certain molecules disclosed in this document were tested against YFM using procedures described in the following paragraph. In the reporting of the results, the “YFM Rating Table” was used (See Table Section).
Master plates containing 400 μg of a molecule dissolved in 100 μL of dimethyl sulfoxide (DMSO) (equivalent to a 4000 ppm solution) are used. A master plate of assembled molecules contains 15 μL per well. To this plate, 135 μL of a 90:10 wateracetone mixture is added to each well. A robot (Biomek® NXP Laboratory Automation Workstation) is programmed to dispense 15 μL aspirations from the master plate into an empty 96-well shallow plate (“daughter” plate). There are 6 reps (“daughter” plates) created per master. The created daughter plates are then immediately infested with YFM larvae.
The day before plates are to be treated, mosquito eggs are placed in Millipore water containing liver powder to begin hatching (4 g. into 400 mL). After the daughter plates are created using the robot, they are infested with 220 μL of the liver powder/larval mosquito mixture (about 1 day-old larvae). After plates are infested with mosquito larvae, a non-evaporative lid is used to cover the plate to reduce drying. Plates are held at room temperature for 3 days prior to grading. After 3 days, each well is observed and scored based on mortality.

Where two headings read alike, the source gives them in different places.

Turning to `Cc1ccc(C(C)C)c(N2C(=O)CS/C2=N\C(=O)NCCCc2ccc(-c3ncn(-c4ccc(OC(F)(F)F)cc4)n3)cc2)c1` [F20, (Z)-1-(3-(2-isopropyl-5-methylphenyl)-4-oxothiazolidin-2-ylidene)-3-(3-(4-(1-(4-(trifluoromethoxy)phenyl)-1H-1,2,4-triazol-3-yl)phenyl)propyl)urea], the mortality at 50 µg/cm2 fell in the range of 50 to 100% in data set [1] and 50 to 100% in data set [2] (168 h, 50 μg/cm^2 on artificial diet, second instar CL larvae, 25° C., five to seven days, average of eight wells, read-out: CL % Control (or Mortality) rating). Moreover, the “YFM % Control (or Mortality) rating” value in data set [3] is “A (80-100)”.

`Cc1ccc(N2C(=O)CS/C2=N\C(=O)NCCCCc2ccc(-c3ncn(-c4ccc(OC(F)(F)F)cc4)n3)cc2)c(C)c1` [FB17, (Z)-1-(3-(2,4-dimethylphenyl)-4-oxothiazolidin-2-ylidene)-3-(4-(4-(1-(4-(trifluoromethoxy)phenyl)-1H-1,2,4-triazol-3-yl)phenyl)butyl)urea]: the pest or weed control at 50 µg/cm2 in data set [1] (Table ABC (FB)) and in data set [2] (Table ABC (FB)) was 50 to 100% throughout. Moreover, in data set [3] (Table ABC (FB)), the “YFM (Biological Results, Insect species)” value was “A (80-100)”.

On to `CC(C)c1ccc(Cl)cc1N1C(=O)CS/C1=N\C(=O)NCCc1ccc(-c2ncn(-c3ccc(OC(F)(F)F)cc3)n2)cc1` [FB40, (Z)-1-(3-(5-chloro-2-isopropylphenyl)-4-oxothiazolidin-2-ylidene)-3-(4-(1-(4-(trifluoromethoxy)phenyl)-1H-1,2,4-triazol-3-yl)phenethyl)urea], for which the pest or weed control at 50 µg/cm2 in data set [1] (Table ABC (FB)) and in data set [2] (Table ABC (FB)) was 50 to 100% in each case. In data set [3] (Table ABC (FB)), the “YFM (Biological Results, Insect species)” value is “A (80-100)”.

For the compound `Cc1ccc(C(C)C)c(N2C(=O)CCS/C2=N\C(=O)NCCc2ccc(-c3ncn(-c4ccc(OC(F)(F)F)cc4)n3)cc2)c1` [FB41], the pest or weed control at 50 µg/cm2 in data set [1] (Table ABC (FB)) and in data set [2] (Table ABC (FB)) was 50 to 100% each time. Moreover, the “YFM (Biological Results, Insect species)” value in data set [3] (Table ABC (FB)) is “A (80-100)”.

Regarding `CC(Cc1ccc(-c2ncn(-c3ccc(OC(F)(F)F)cc3)n2)cc1)NC(=O)/N=C1\SCC(=O)N1c1cc(Cl)ccc1C(C)C` (stereo not drawn) [FB42], the pest or weed control at 50 µg/cm2 in data set [1] (Table ABC (FB)) and in data set [2] (Table ABC (FB)) was 50 to 100% throughout. Also, the “YFM (Biological Results, Insect species)” value in data set [3] (Table ABC (FB)) is given as “A (80-100)”.

In the case of `Cc1ccc(N2C(=O)CS/C2=N\C(=O)NC(C)Cc2ccc(-c3ncn(-c4ccc(OC(F)(F)F)cc4)n3)cc2)c(C(C)C)c1` (stereo not drawn) [FB48, (Z)-1-(3-(2-isopropyl-4-methylphenyl)-4-oxothiazolidin-2-ylidene)-3-(1-(4-(1-(4-(trifluoromethoxy)phenyl)-1H-1,2,4-triazol-3-yl)phenyl)propan-2-yl)urea], the pest or weed control at 50 µg/cm2 in data set [1] (Table ABC (FB)) and in data set [2] (Table ABC (FB)) was 50 to 100% in each case. Moreover, the “YFM (Biological Results, Insect species)” value in data set [3] (Table ABC (FB)) is reported as “A (80-100)”.

`CC(C)c1ccc(Cl)cc1N1C(=O)CS/C1=N\C(=O)NCC(C)c1ccc(-c2ncn(-c3ccc(OC(F)(F)F)cc3)n2)cc1` (stereo not drawn) [FB49, (Z)-1-(3-(5-chloro-2-isopropylphenyl)-4-oxothiazolidin-2-ylidene)-3-(2-(4-(1-(4-(trifluoromethoxy)phenyl)-1H-1,2,4-triazol-2,4-triazol-3-yl)phenyl)propyl)urea]: the pest or weed control at 50 µg/cm2 in data set [1] (Table ABC (FB)) and in data set [2] (Table ABC (FB)) was 50 to 100% throughout. Besides, the “YFM (Biological Results, Insect species)” value in data set [3] (Table ABC (FB)) was “A (80-100)”.

Take `Cc1ccc(C(C)C)c(N2C(=O)CS/C2=N\C(=O)N(C)CCc2ccc(-c3ncn(-c4ccc(OC(F)(F)F)cc4)n3)cc2)c1` [FB51]: the pest or weed control at 50 µg/cm2 in data set [1] (Table ABC (FB)) and in data set [2] (Table ABC (FB)) was 50 to 100% throughout. Besides, the “YFM (Biological Results, Insect species)” value in data set [3] (Table ABC (FB)) is reported as “A (80-100)”.

For the compound `Cc1ccc(C(C)C)c(N2C(=O)CS/C2=N\C(=O)NCC(C)(C)c2ccc(-c3ncn(-c4ccc(OC(F)(F)F)cc4)n3)cc2)c1` [FB53, (Z)-1-(3-(2-isopropyl-5-methylphenyl)-4-oxothiazolidin-2-ylidene)-3-(2-methyl-2-(4-(1-(4-(trifluoromethoxy)phenyl)-1H-1,2,4-triazol-3-yl)phenyl)propyl)urea], the pest or weed control at 50 µg/cm2 in data set [1] (Table ABC (FB)) and in data set [2] (Table ABC (FB)) was 50 to 100% in each case. Besides, the “YFM (Biological Results, Insect species)” value in data set [3] (Table ABC (FB)) is given as “B (More than 0-Less than 80)”.

Take `CCN(CCc1ccc(-c2ncn(-c3ccc(OC(F)(F)F)cc3)n2)cc1)C(=O)/N=C1\SCC(=O)N1c1cc(C)ccc1C(C)C` [FB54, (Z)-1-ethyl-3-(3-(2-isopropyl-5-methylphenyl)-4-oxothiazolidin-2-ylidene)-1-(4-(1-(4-(trifluoromethoxy)phenyl)-1H-1,2,4-triazol-3-yl)phenethyl)urea]: the pest or weed control at 50 µg/cm2 in data set [1] (Table ABC (FB)) and in data set [2] (Table ABC (FB)) was 50 to 100% in each case. Besides, the “YFM (Biological Results, Insect species)” value in data set [3] (Table ABC (FB)) is listed as “A (80-100)”.

With `CCC(CNC(=O)/N=C1\SCC(=O)N1c1ccccc1C(C)C)c1ccc(-c2ncn(-c3ccc(OC(F)(F)F)cc3)n2)cc1` (stereo not drawn) [P209, (Z)-1-(3-(2-isopropylphenyl)-4-oxothiazolidin-2-ylidene)-3-(2-(4-(1-(4-(trifluoromethoxy)phenyl)-1H-1,2,4-triazol-3-yl)phenyl)butyl)urea], the mortality at 50 µg/cm2 in data set [1] lay within 50 to 100%. Further, the “YFM % Control (or Mortality) rating” value in data set [3] is recorded as “A (80-100)”.

For the compound `CCC(CNC(=O)/N=C1\SCC(=O)N1c1cc(OC)ccc1C(C)C)c1ccc(-c2ncn(-c3ccc(OC(F)(F)F)cc3)n2)cc1` (stereo not drawn) [P683, (Z)-1-(3-(2-isopropyl-5-methoxyphenyl)-4-oxothiazolidin-2-ylidene)-3-(2-(4-(1-(4-(trifluoromethoxy)phenyl)-1H-1,2,4-triazol-3-yl)phenyl)butyl)urea], the mortality at 50 µg/cm2 in data set [1] is 50 to 100%. The “YFM % Control (or Mortality) rating” value in data set [3] is “A (80-100)”.

As for `CCC(CNC(=O)/N=C1\SCC(=O)N1c1ccc(F)cc1C(C)C)c1ccc(-c2ncn(-c3ccc(OC(F)(F)F)cc3)n2)cc1` (stereo not drawn) [P1163], the mortality at 50 µg/cm2 in data set [1] is 50 to 100%. The “YFM % Control (or Mortality) rating” value in data set [3] is “D (No activity noticed in this bioassay)”.

For `CCc1cccc(C)c1NC(=S)NC(=O)NCCCCc1ccc(-c2ncn(-c3ccc(OC(F)(F)F)cc3)n2)cc1` [PC153, 1-[(2-ethyl-6-methyl-phenyl)carbamothioyl]-3-[4-[4-[1-[4-(trifluoromethoxy)phenyl]-1H-1,2,4-triazol-3-yl]phenyl]butyl]urea], the pest or weed control at 50 µg/cm2 in data set [2] (Table ABC (PC)) fell in the range of 50 to 100%. Further, in data set [3] (Table ABC (PC)), the “YFM (Biological Results, Insect species)” value is on record as “B (More than 0-Less than 80)”.

As for `Cc1ccccc1NC(=S)NC(=O)NCCCCc1cccc(-c2ncn(-c3ccc(OC(F)(F)F)cc3)n2)c1` [PC170, 1-(o-tolylcarbamothioyl)-3-[4-[3-[1-[4-(trifluoromethoxy)phenyl]-1H-1,2,4-triazol-3-yl]phenyl]butyl]urea], the pest or weed control at 50 µg/cm2 in data set [1] (Table ABC (PC)) is 0 to 50%; in data set [2] (Table ABC (PC)), 50 to 100%.

Turning to `CCc1ccccc1NC(=S)NC(=O)NCCCCc1cccc(-c2ncn(-c3ccc(OC(F)(F)F)cc3)n2)c1` [PC171, 1-[(2-ethylphenyl)carbamothioyl]-3-[4-[3-[1-[4-(trifluoromethoxy)phenyl]-1H-1,2,4-triazol-3-yl]phenyl]butyl]urea], the pest or weed control at 50 µg/cm2 is 0 to 50% in data set [1] (Table ABC (PC)) and 50 to 100% in data set [2] (Table ABC (PC)).

With `CC(C)c1ccccc1NC(=S)NC(=O)NCCCCc1cccc(-c2ncn(-c3ccc(OC(F)(F)F)cc3)n2)c1` [PC172, 1-[(2-isopropylphenyl)carbamothioyl]-3-[4-[3-[1-[4-(trifluoromethoxy)phenyl]-1H-1,2,4-triazol-3-yl]phenyl]butyl]urea], the pest or weed control at 50 µg/cm2 in data set [1] (Table ABC (PC)) and in data set [2] (Table ABC (PC)) was 50 to 100% each time.

Take `Cc1ccc(C(C)C)c(NC(=S)NC(=O)NCCCCc2cccc(-c3ncn(-c4ccc(OC(F)(F)F)cc4)n3)c2)c1` [PC176, 1-[(2-isopropyl-5-methyl-phenyl)carbamothioyl]-3-[4-[3-[1-[4-(trifluoromethoxy)phenyl]-1H-1,2,4-triazol-3-yl]phenyl]butyl]urea]: the pest or weed control at 50 µg/cm2 lay within 0 to 50% in data set [1] (Table ABC (PC)) and 50 to 100% in data set [2] (Table ABC (PC)).

Consider `CCc1cccc(C)c1NC(=S)NC(=O)NCCCCc1cccc(-c2ncn(-c3ccc(OC(F)(F)F)cc3)n2)c1` [PC179, 1-[(2-ethyl-6-methyl-phenyl)carbamothioyl]-3-[4-[3-[1-[4-(trifluoromethoxy)phenyl]-1H-1,2,4-triazol-3-yl]phenyl]butyl]urea], for which the results for the pest or weed control at 50 µg/cm2 in data set [1] (Table ABC (PC)) and in data set [2] (Table ABC (PC)) were 0 to 50% and 50 to 100%, respectively.

The mortality is the share of the test organisms that died.
